One series has as its system VPS34. Particulars: read-out: enzymatic inhibitory potency against VPS34; ref [30], [31], [32], [33]; cited from earlier work.
Series [1] is described as follows: Cell cytotoxicity, CCK-8 assay. The note with it: African green monkey, Vero E6 cells. The format is cell-based.
Another series has as its target CYP3A4 (Homo sapiens, UniProt P08684). Nature of the series: Screening of cytochrome P450 enzymes responsible for degradation. It counts as in vitro ADME. The note with it: liver microsomes, CYP450 screening. A general note: Liver microsomes are vesicles of endoplasmic reticulum, rich in cytochrome P450 enzymes.
Series [2] in a line: Degradation in liver microsomes. It counts as in vitro ADME.
The nature of series [3]: Tissue distribution after ip administration. It counts as in vivo, mice. The note with it: 10 mg/kg ip.
Series [4] can be described thus: Plasma PK profile after single intraperitoneal injection. The format is in vivo, C57BL/6 mice.

Here are results for four compounds from article PMC13304707 (Acta Pharmaceutica Sinica. B, 2025).

CYP3A4, sequence (P08684 whole entry, species assumed): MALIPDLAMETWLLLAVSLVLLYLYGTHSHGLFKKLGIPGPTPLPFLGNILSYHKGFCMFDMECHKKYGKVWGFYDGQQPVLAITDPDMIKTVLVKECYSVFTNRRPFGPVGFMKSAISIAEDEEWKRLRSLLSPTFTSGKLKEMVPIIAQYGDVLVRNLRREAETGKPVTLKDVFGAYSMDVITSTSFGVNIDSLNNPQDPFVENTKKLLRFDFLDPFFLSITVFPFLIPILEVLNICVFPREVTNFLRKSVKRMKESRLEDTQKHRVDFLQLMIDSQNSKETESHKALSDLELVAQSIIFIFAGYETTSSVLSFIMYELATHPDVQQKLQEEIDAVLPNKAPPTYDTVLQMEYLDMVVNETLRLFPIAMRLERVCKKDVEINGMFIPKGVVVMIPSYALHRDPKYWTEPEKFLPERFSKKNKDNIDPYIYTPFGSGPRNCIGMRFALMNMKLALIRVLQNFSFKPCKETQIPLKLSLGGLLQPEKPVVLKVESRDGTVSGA

Regarding `CC(C)(O)CNc1ncc(-c2ccnc(Nc3ccnc(Cl)c3)n2)c(CC2CC2)n1` [VPS34-IN-1], the IC50 in the series with VPS34 was 0.025 µM. This compound displayed a half-maximal cytotoxic concentration (CC50) at 48 h in series [1] of 11 µM.
As for `Nc1ncc(-c2ccnc(Nc3ccncc3)n2)c(CC2CC2)n1` [PIK-III], in the series on VPS34, the IC50 is 0.018 µM. In series [1], this compound yielded a CC50 at 48 h of 45.8 µM.
Regarding `C[C@@H]1COCCN1c1cc(=O)n2c(n1)N(Cc1cncc(Cl)c1)[C@H](C(F)(F)F)CC2` [SAR405], the “degradation upon addition of 6β-hydroxytestosterone, a specific inhibitor of CYP3A4” value on CYP3A4 is “almost completely attenuated”. For the same compound, the “time to extensive degradation to minimal levels in liver microsomes” value in series [2] is reported as […]. For the same compound, the IC50 with VPS34 is […]. Further, the “time to Cmax in tissues (cardiorespiratory and renal systems)” value in series [3] is at most 10 min. The compound further displayed a CC50 at 48 h in series [1] of […]. In series [4] (C57BL/6, mouse, ip, 10 mg/kg), the AUC(0-t) came to […], the Cmax turned out to be 5820 ± 723 ng/mL and the half-life was […]. Moreover, the Tmax in series [4] (C57BL/6, mouse, ip, 10 mg/kg, Tmax, mice, 10 mg/kg ip) is 8.4 ± 6 min. In series [4] (mice, 10 mg/kg ip), this compound returned a CL of […].
Consider `CC(C)C(=O)CN1c2nc(N3CCOC[C@H]3C)cc(=O)n2CC[C@H]1C(F)(F)F` [VPS34-IN-2, (2S)-8-[(3R)-3-methylmorpholin-4-yl]-1-(3-methyl-2-oxobutyl)-2-(trifluoromethyl)-3,4-dihydro-2H-pyrimido[1,2-a]pyrimidin-6-one], for which it took 54.5 µM to reach half-maximal cytotoxicity in series [1] (CC50 at 48 h).

In general, CC50 refers to the concentration giving 50% cytotoxicity. Read a high CC50 as better tolerance by the cells. Broadly, the AUC(0-t) is the area under the concentration-time curve up to a stated or last time point. The Cmax is the highest concentration seen after dosing. As usually defined, the half-life is the time needed for the level to fall by half in the phase considered. The term Tmax denotes the time from dosing to the highest level.
